US10168342B2, “Lipid probes and uses thereof” (THE SCRIPPS RESEARCH INSTITUTE, priority 2015, dated 2019)
Where two headings read alike, the source gives them in different places.

Assays:
[1] = target: T1, AEA-DA lipid probe targets in Neuro2a cells (Mus musculus, UniProt Q9CQQ7)
T1 sequence (Q9CQQ7 43-256): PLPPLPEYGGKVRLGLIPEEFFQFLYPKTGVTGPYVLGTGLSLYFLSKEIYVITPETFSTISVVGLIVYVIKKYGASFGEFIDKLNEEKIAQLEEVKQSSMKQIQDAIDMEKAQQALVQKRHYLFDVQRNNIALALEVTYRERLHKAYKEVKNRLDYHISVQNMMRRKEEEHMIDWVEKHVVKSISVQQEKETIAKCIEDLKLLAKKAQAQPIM

[2] = target: T2, AEA-DA lipid probe targets in Neuro2a cells (Mus musculus, UniProt Q8BIJ6); conditions: protein Iars2, Neuro2a cells
T2 sequence (Q8BIJ6 49-1012): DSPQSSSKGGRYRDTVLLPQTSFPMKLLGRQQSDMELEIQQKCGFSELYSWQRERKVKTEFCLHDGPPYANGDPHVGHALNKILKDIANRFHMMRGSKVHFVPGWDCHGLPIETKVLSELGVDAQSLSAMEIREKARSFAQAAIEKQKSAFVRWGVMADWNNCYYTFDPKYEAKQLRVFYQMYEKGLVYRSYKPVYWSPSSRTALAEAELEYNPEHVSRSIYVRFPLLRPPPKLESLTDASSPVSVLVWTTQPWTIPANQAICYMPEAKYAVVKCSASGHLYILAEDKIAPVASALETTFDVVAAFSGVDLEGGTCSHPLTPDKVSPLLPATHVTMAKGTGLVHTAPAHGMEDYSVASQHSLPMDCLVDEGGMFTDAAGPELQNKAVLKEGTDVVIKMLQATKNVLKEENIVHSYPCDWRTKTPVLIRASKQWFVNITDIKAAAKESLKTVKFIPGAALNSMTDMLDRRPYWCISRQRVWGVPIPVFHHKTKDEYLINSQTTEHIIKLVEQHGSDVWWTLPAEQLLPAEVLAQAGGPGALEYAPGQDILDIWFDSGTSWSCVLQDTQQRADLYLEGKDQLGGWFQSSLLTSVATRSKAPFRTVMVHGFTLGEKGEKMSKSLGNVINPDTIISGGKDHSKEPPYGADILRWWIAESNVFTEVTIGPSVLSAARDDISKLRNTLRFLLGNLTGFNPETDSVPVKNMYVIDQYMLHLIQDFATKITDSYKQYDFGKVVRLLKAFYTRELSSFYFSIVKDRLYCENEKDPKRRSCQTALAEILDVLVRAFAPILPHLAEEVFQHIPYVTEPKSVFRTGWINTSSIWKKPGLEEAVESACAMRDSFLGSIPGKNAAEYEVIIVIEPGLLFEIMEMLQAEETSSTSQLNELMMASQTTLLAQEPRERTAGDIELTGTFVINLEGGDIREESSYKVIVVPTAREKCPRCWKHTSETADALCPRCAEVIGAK

[3] = target: T3, AEA-DA lipid probe targets in Neuro2a cells (Mus musculus, UniProt Q8BJ03); conditions: protein Cox15, Neuro2a cells
T3 sequence (Q8BJ03 1-413): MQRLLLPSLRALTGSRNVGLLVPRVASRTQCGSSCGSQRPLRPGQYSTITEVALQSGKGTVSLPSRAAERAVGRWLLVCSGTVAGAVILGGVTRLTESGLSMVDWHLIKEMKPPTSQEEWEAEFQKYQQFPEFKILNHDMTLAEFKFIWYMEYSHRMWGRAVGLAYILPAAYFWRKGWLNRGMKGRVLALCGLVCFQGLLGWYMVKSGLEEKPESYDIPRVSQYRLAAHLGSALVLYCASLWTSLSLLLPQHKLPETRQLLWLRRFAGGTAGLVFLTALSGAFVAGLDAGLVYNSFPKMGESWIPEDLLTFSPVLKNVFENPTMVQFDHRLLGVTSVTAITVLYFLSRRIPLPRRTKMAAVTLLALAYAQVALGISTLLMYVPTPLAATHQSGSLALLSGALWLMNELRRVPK

[4] = target: AEA-DA lipid probe targets in Neuro2a cells (Mus musculus, UniProt Q9DBG6)
[5] = target: T4, AEA-DA lipid probe targets in Neuro2a cells (Mus musculus, UniProt P10404)
T4 sequence (P10404 33-641): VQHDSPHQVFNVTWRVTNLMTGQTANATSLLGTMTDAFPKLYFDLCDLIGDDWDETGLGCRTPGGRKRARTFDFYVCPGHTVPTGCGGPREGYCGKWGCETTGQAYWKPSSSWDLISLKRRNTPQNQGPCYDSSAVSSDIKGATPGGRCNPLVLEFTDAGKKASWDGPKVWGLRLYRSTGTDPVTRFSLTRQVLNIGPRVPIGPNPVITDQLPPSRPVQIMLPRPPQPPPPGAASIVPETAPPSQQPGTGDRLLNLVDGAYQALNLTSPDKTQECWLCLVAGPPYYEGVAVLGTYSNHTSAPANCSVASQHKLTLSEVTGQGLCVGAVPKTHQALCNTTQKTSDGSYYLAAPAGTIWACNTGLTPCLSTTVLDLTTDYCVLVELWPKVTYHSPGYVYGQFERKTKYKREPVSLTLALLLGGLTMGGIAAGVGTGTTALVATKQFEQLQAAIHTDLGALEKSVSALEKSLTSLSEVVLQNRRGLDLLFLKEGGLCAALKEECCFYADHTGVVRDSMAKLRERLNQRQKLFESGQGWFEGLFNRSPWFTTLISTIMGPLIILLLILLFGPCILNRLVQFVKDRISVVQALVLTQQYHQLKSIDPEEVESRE

[6] = target: T5, AEA-DA lipid probe targets in Neuro2a cells (Mus musculus, UniProt P00375)
T5 sequence (P00375 1-187): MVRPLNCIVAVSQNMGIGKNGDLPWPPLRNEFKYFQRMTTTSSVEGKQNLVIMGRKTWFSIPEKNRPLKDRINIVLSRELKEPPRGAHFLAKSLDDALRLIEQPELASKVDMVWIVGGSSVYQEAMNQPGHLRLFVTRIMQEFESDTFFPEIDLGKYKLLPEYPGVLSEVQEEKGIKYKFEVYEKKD

AEA-DA lipid probe targets in Neuro2a cells (Mus musculus, UniProt Q9DBG6), sequence (Q9DBG6 23-631): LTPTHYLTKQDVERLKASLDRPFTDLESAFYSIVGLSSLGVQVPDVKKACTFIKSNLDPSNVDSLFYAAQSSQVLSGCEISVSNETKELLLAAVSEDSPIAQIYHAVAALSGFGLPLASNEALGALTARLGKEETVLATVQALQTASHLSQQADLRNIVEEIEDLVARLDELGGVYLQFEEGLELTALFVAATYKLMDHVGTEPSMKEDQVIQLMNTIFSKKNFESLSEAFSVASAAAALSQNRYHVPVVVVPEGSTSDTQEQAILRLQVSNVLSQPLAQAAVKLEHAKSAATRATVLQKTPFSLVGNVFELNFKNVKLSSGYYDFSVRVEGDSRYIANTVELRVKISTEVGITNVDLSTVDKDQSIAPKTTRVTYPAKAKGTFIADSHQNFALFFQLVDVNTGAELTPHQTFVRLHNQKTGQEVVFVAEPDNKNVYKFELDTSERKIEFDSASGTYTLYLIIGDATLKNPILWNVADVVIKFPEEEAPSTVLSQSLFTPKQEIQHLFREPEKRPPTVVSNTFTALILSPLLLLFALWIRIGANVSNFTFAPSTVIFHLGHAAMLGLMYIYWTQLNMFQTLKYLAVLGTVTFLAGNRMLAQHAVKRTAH

## CCCCC/C=C\C/C=C\C/C=C\C/C=C\CCCC(=O)NCCO [AEA, anandamide, reference compound]
[1]; competitor 200 μM
  SILAC ratio Atp5f1: 1.5
[2]; competitor 200 μM
  SILAC ratio (AEA-DA competition): 0.9
[3]; competitor 200 μM
  SILAC ratio (AEA-DA competition): 1.0
[4]; competitor 200 μM
  SILAC ratio Rpn2: 1.3
[5]; competitor 200 μM
  SILAC ratio MLV-related: 1.4
[6]; competitor 200 μM
  SILAC ratio Dhfr: 1.2

## O=C(/C=C/c1cccnc1)NCCCCC1CCN(C(=O)c2ccccc2)CC1 [FK-866, reference compound]
[1]; competitor 25 μM
  SILAC ratio Atp5f1: 1.1
[3]; competitor 25 μM
  SILAC ratio (AEA-DA competition): 0.9
[4]; competitor 25 μM
  SILAC ratio Rpn2: 1.1
[5]; competitor 25 μM
  SILAC ratio MLV-related: 1.1
[6]; competitor 25 μM
  SILAC ratio Dhfr: 1.2

## CN1CCN(C(=O)c2c(-c3ccccc3)c3cc([N+](=O)[O-])ccc3n2C)CC1 [KML110, (1-Methyl-5-nitro-3-phenyl-1H-indol-2-yl)(4-methylpiperazin-1-yl)methanone]
[1]; competitor 25 μM
  SILAC ratio Atp5f1: 1.6
[3]; competitor 25 μM
  SILAC ratio (AEA-DA competition): 1.1
[4]; competitor 25 μM
  SILAC ratio Rpn2: 1.2
[5]; competitor 25 μM
  SILAC ratio MLV-related: 1.2
[6]; competitor 25 μM
  SILAC ratio Dhfr: 1.4

## CN1CCN(C(=O)c2[nH]c3ccc([N+](=O)[O-])cc3c2-c2ccccc2)CC1 [MJN228, (4-Methylpiperazin-1-yl)(5-nitro-3-phenyl-1H-indol-2-yl)methanone]
[1]; competitor 10 μM
  SILAC ratio Atp5f1: 1.2
[1]; competitor 25 μM
  SILAC ratio Atp5f1: 1.5
[1]; competitor 50 μM
  SILAC ratio Atp5f1: 1.6
[1]; competitor 100 μM
  SILAC ratio Atp5f1: 1.8
[2]; competitor 10 μM
  SILAC ratio (AEA-DA competition): 0.8
[2]; competitor 25 μM
  SILAC ratio (AEA-DA competition): 1.0
[2]; competitor 50 μM
  SILAC ratio (AEA-DA competition): 0.7
[3]; competitor 10 μM
  SILAC ratio (AEA-DA competition): 0.8
[3]; competitor 25 μM
  SILAC ratio (AEA-DA competition): 1.0
[3]; competitor 50 μM
  SILAC ratio (AEA-DA competition): 0.7
[3]; competitor 100 μM
  SILAC ratio (AEA-DA competition): 0.6
[4]; competitor 10 μM
  SILAC ratio Rpn2: 1.2
[4]; competitor 25 μM
  SILAC ratio Rpn2: 1.3
[4]; competitor 50 μM
  SILAC ratio Rpn2: 1.4
[4]; competitor 100 μM
  SILAC ratio Rpn2: 1.7
[5]; competitor 10 μM
  SILAC ratio MLV-related: 1.8
[5]; competitor 25 μM
  SILAC ratio MLV-related: 1.8
[5]; competitor 50 μM
  SILAC ratio MLV-related: 1.7
[5]; competitor 100 μM
  SILAC ratio MLV-related: 2.5
[6]; competitor 10 μM
  SILAC ratio Dhfr: 2.0
[6]; competitor 25 μM
  SILAC ratio Dhfr: 1.6
[6]; competitor 50 μM
  SILAC ratio Dhfr: 0.4
[6]; competitor 100 μM
  SILAC ratio Dhfr: 1.5

## C=CCN(C)CCCCCCOc1ccc(C(=O)c2ccc(Br)cc2)c(F)c1 [Ro 48-8071, reference compound]
[1]; competitor 25 μM
  SILAC ratio Atp5f1: 1.0
[2]; competitor 25 μM
  SILAC ratio (AEA-DA competition): 0.7
[3]; competitor 25 μM
  SILAC ratio (AEA-DA competition): 0.8
[4]; competitor 25 μM
  SILAC ratio Rpn2: 1.0
[5]; competitor 25 μM
  SILAC ratio MLV-related: 1.0
[6]; competitor 25 μM
  SILAC ratio Dhfr: 0.8
